Columns and labels:
[1] = tested on: EGFR signalling in H9c2 cells; assay: Ang II-induced EGFR/AKT/ERK phosphorylation in H9c2 cells (Western blot); assay type: cell-based, rat; details: Ang II 1 μM 15 min
Protocol: (§1) Cells or heart tissues (30–50 mg) were lysated. […] Each PVDF membrane was incubated with specific antibodies.

[2] = tested on: c-Src phosphorylation in H9c2 cells; assay: Ang II-induced c-Src phosphorylation in H9c2 cells (Western blot); assay type: cell-based, rat; details: 10 μM pre-treatment 2 hrs, Ang II 1 μM 15 min
Protocol: as §1

[3] = tested on: AngII-induced cardiac hypertrophy in C57BL/6 mice; assay: Echocardiography and heart weight/bodyweight in AngII-induced cardiac hypertrophy mice; assay type: in vivo, mouse; details: AngII-treated C57BL/6 mice, 20 mg/kg/day for 2 weeks, n = 7
Protocol: Cardiac hypertrophy was induced in 6‐week‐old C57BL/6 mice by a […] subcutaneous injection of AngII (0.5 mg/kg/2 days for 2 weeks) in phosphate buffer (pH 7.2), as described previously 18. Mice in vehicle control group and Ang II group received 1% CMC‐Na solution alone in the same schedule as compound‐treated groups. Animals were killed under sodium pentobarbital anaesthesia. After mice was killed, heart tissues were embedded in 4% paraformaldehyde for pathological analysis and/or snap‐frozen in liquid nitrogen for gene and protein expression analysis. In addition, the blood was collected from the right ventricle using a heparin‐containing syringe with a needle at the time of death.
At the day before the sacrifice, Doppler analysis was performed to ensure that pathologic cardiac hypertrophy was induced. The internal diameter and wall thickness of left ventricle (LV) were assessed by echocardiography 19. Hearts of the killed mice were dissected and weighted to compare heart weight/bodyweight (mg/kg) ratios in mice. Mice was anaesthetized with isoflurane, echocardiography was performed by SONOS 5500 ultrasound (Philips Electronics, Amsterdam, the Netherlands) with a 15‐MHz linear array ultrasound transducer. The LV was assessed in both parasternal long‐axis and short‐axis views at a frame rate of 120 Hz. End‐systole or end‐diastole was defined as the phase in which the smallest or largest area of LV respectively. LV posterior wall (LVPW) and LV internal dimension (LVID) were measured from LV M‐model tracing with a sweep speed of 50 mm/sec. at the mid‐papillary muscle level.

[4] = tested on: EGFR signalling in H9c2 cells; details: 10 μM pre-treatment 2 hrs, EGF 100 ng/ml 15 min, Western blot
Protocol: as §1

H9c2 cells = assay: EGF-induced hypertrophy of H9c2 cells (Western blot, RT-qPCR, immunofluorescence); assay type: cell-based, rat; details: pre-treatment 2 hrs (AG1478 10 μM; 542/543 1-10 μM), EGF 100 ng/ml 6 hrs (mRNA) or 12 hrs (MyHC)
Protocol: as §1

[5] = tested on: heart tissues of Ang II-treated C57BL/6 mice; assay: Heart histopathology, Masson fibrosis staining, RT-qPCR and immunohistochemistry in Ang II-treated mice; assay type: in vivo, mouse; details: Ang II 2 weeks
Protocol: Cardiac hypertrophy was induced in 6-week-old C57BL/6 mice by a […] subcutaneous injection of AngII (0.5 mg/kg/2 days for 2 weeks) in phosphate buffer (pH 7.2), as described previously 18. Mice in vehicle control group and Ang II group received 1% CMC-Na solution alone in the same schedule as compound-treated groups. Animals were killed under sodium pentobarbital anaesthesia. After mice was killed, heart tissues were embedded in 4% paraformaldehyde for pathological analysis and/or snap-frozen in liquid nitrogen for gene and protein expression analysis. In addition, the blood was collected from the right ventricle using a heparin-containing syringe with a needle at the time of death. […] Hearts were fixed in 4% paraformaldehyde and embedded in paraffin. The paraffin sections (5 μm) were stained with haematoxylin and eosin. To estimate the extent of damage, the specimen was observed under a light microscope (×200 amplification; Nikon, Tokyo, Japan). After deparaffinization and rehydration, 5 μm heart sections were treated with 3% H2O2 for 30 min. and with 1% BSA in PBS for 30 min. Slides were incubated overnight at 4°C with primary antibody (1:50) then incubated with secondary antibody (1:100; Santa Cruz Biotech) for 1 hr and DAB (A: B = 1: 20) for 5 min. at room temperature. At last the cell nuclei were stained with haematoxylin for 5 min., the sections were dehydrated and the images were viewed by a light microscope (×200 amplification; Nikon). Tissues were fixed in paraformaldehyde solution and embedded in paraffin. Paraffin sections (5 μm) of the heart tissues were stained with Masson to evaluate the fibrosis content. The stained sections then were viewed by light microscope (×200 amplification; Nikon).

[6] = tested on: primary neonatal rat cardiomyocytes; assay: Ang II-stimulated primary neonatal rat cardiomyocytes (Western blot, RT-qPCR); assay type: cell-based; details: 10 μM pre-treatment 2h, Ang II 1 μM 15min
Protocol: Cells were incubated with a DMEM medium that contained 5.5 mmol/L of D-glucose.
Figure S1. Effects of EGFR inhibitos in Ang II-stimulated primary neonatal rat cardiomyocytes. […] The cell lysates were collected and p-EGFR/EGFR (A) and p-AKT/p-ERK/GAPDH (B) were detected by Western Blot analysis. […] The cell lysates were collected and MyHC/GAPDH was detected by Western Blot analysis. […] The mRNA levels of ANP (D), β/α-MyHC (E), and SKA (F) were detected by RT-qPCR assay.

SMILES | Ang II-induced phosphorylation of EGFR ([1]; PP2 10 μM pre-treatment 2 hrs) | Ang II-induced phosphorylation of c-Src [2] | HR [3] | HW (mg)/BW (g) [3] [mg/g] | LVIDd (diastole left ventricle internal dimension) [3] [mm] | LVIDs (systolic left ventricle internal dimension) [3] [mm] | LVPW (left ventricle posterior wall) [3] [mm] | VS [3] [mm] | activation of EGFR and downstream signalling (EGFR, AKT, ERK phosphorylation) induced by EGF [4] | activation of EGFR and downstream signalling (EGFR, AKT, ERK phosphorylation) induced by Ang II ([1]; AG1478 10 μM, 542/543 1, 2.5, 5 or 10 μM pre-treatment 2 hrs) | EGF-induced overexpression of pro-hypertrophic genes (MyHC, ANP, BNP, β/α-MyHC, SKA) (H9c2 cells) | cardiac EGFR signalling pathway activation (p-EGFR, p-ERK, p-AKT immunohistochemical staining) ([5]; 20 mg/kg) | Ang II-induced increases in heart expression of hypertrophic genes ANP, BNP, β/α-MyHC, SKA (RT-qPCR) ([5]; AG1478 20 mg/kg/day, 542 at both dosages (5 and 20 mg/kg/day)) | Ang II-induced heart structural abnormalities (haematoxylin and eosin staining) ([5]; daily treatment) | Ang II-increased phosphorylation of EGFR in primary cardiomyocytes [6]
CC(C)(C)n1nc(-c2ccc(Cl)cc2)c2c(N)ncnc21 [PP2] | almost totally inhibited | almost totally inhibited | – | – | – | – | – | – | – | – | – | – | – | – | –
COc1cc2ncnc(Nc3cccc(Cl)c3)c2cc1OC [AG1478] | – | – | 345.83 ± 70.87 | 5.68 ± 0.62 | 2.90 ± 0.26 | 1.57 ± 0.21 | 0.88 ± 0.03 | 0.95 ± 0.02 | inhibits | inhibits | significantly inhibited | significantly inhibited | significantly blocked | significantly attenuated | markedly reversed

Reference: PMC4759478, “Novel EGFR inhibitors attenuate cardiac hypertrophy induced by angiotensin II” (Journal of Cellular and Molecular Medicine, 2016)
